Reference: patent publication US20230295197A1, “STAT5 and STAT6 Degraders and Uses Thereof” (REGENTS OF THE UNIVERSITY OF MICHICAN, priority 2022, published 2023)
Read-outs that look alike come from different tables or passages of the source.

Target: T1, STAT6 (Homo sapiens, UniProt P42226)
T1 construct: endogenous in cells; host or cells: MOLM-16, KU-812, SKNO1, MB231, L1236
T1 sequence (P42226 1-847): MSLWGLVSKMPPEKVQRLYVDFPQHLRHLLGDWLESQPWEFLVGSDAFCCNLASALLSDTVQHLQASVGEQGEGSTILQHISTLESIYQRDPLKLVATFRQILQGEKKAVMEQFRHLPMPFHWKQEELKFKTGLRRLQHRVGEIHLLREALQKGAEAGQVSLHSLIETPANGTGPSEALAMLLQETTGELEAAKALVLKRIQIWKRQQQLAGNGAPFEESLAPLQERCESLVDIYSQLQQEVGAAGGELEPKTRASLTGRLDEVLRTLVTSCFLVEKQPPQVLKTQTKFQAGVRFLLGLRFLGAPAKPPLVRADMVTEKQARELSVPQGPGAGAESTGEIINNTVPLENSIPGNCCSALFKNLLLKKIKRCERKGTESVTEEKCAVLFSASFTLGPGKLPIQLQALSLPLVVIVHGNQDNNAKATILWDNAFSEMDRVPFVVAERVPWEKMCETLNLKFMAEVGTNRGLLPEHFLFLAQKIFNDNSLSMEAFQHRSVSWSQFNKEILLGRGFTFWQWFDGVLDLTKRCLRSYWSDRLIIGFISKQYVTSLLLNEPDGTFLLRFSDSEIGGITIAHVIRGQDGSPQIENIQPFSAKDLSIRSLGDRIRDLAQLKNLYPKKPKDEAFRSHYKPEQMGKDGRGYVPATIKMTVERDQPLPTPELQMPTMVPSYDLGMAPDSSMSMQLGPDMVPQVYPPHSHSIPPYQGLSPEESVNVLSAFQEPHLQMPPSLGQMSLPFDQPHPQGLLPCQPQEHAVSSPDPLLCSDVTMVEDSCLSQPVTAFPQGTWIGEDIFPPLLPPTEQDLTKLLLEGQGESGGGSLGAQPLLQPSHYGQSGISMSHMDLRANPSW
Assay: Immunoblotting (Western blot) analysis of STAT6 degradation efficiency of degraders in treated cells
Type: cell-based
In short: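 ~1e6 cells/pt; cpd at indicated conc and duration; RIPA + protease/phosphatase inhibitors; BCA; 20-40 μg/lane Tris-glycine SDS-PAGE; PVDF; primary Ab 1:1000 o/n 4 °C; IRDye secondaries 1 h rt; infrared scan and densitometry; GAPDH loading ctrl.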

[1] = L1236 cells, read-out: DC50 S6 L1236
[2] = MOLM-16 cells, class symbols, read-out: DC50 S6 MOLM-16

SMILES | DC50 [1] | DC50 [2]
Cc1ncsc1-c1ccc([C@H](C)NC(=O)[C@@H]2C[C@@H](O)CN2C(=O)[C@@H](NC(=O)CCNC(=O)CO[C@H]2C[C@@H](C(=O)N3CCC[C@H](c4ccccc4)C3)N(C(=O)[C@@H](NC(=O)c3cc4cc(C(F)(F)P(=O)(O)O)ccc4s3)C(C)(C)C)C2)C(C)(C)C)cc1 [Compound 435, (difluoro(2-(((S)-1-((2S,4S)-4-(2-((3-(((S)-1-((2S,4R)-4-hydroxy-2-(((S)-1-(4-(4-methylthiazol-5-yl)phenyl)ethyl)carbamoyl)pyrrolidin-1-yl)-3,3-dimethyl-1-oxobutan-2-yl)amino)-3-oxopropyl)amino)-2-oxoethoxy)-2-((R)-3-phenylpiperidine-1-carbonyl)pyrrolidin-1-yl)-3,3-dimethyl-1-oxobutan-2-yl)carbamoyl)benzo[b]thiophen-5-yl)methyl)phosphonic acid] | > 10 µM | > 10 µM
CC(C)(C)[C@H](NC(=O)c1cc2cc(C(F)(F)P(=O)(O)O)ccc2s1)C(=O)N1CCN(C(=O)CC(=O)NCCCC#Cc2ccc3c(c2)C(=O)N(C2CCC(=O)NC2=O)C3=O)C[C@H]1C(=O)N1CCC[C@H](c2ccccc2)C1 (stereo partly drawn) [Compound 526, ((2-(((2S)-1-((2S)-4-(3-((5-(2-(2,6-dioxopiperidin-3-yl)-1,3-dioxoisoindolin-5-yl)pent-4-yn-1-yl)amino)-3-oxopropanoyl)-2-((R)-3-phenylpiperidine-1-carbonyl)piperazin-1-yl)-3,3-dimethyl-1-oxobutan-2-yl)carbamoyl)benzo[b]thiophen-5-yl)difluoromethyl)phosphonic acid] | – | > 10 µM
Cc1ncsc1-c1ccc([C@H](C)NC(=O)[C@@H]2C[C@@H](O)CN2C(=O)[C@@H](NC(=O)CCCCCCCNC(=O)CC(=O)N2CCN(C(=O)[C@@H](NC(=O)c3cc4cc(C(F)(F)P(=O)(O)O)ccc4s3)C(C)(C)C)[C@H](C(=O)N3CCC[C@H](c4ccccc4)C3)C2)C(C)(C)C)cc1 [Compound 458, (difluoro(2-(((S)-1-((S)-4-(3-((8-(((S)-1-((2S,4R)-4-hydroxy-2-(((S)-1-(4-(4-methylthiazol-5-yl)phenyl)ethyl)carbamoyl)pyrrolidin-1-yl)-3,3-dimethyl-1-oxobutan-2-yl)amino)-8-oxooctyl)amino)-3-oxopropanoyl)-2-((R)-3-phenylpiperidine-1-carbonyl)piperazin-1-yl)-3,3-dimethyl-1-oxobutan-2-yl)carbamoyl)benzo[b]thiophen-5-yl)methyl)phosphonic acid] | > 10 µM | > 10 µM
CC(C)(C)[C@H](NC(=O)c1cc2cc(C(F)(F)P(=O)(O)O)ccc2s1)C(=O)N1C[C@@H](OCC(=O)NCCC#Cc2cccc3c2C(=O)N(C2CCC(=O)NC2=O)C3=O)C[C@H]1C(=O)N1CCO[C@H](c2ccccc2)C1 (stereo partly drawn) [Compound 481, ((2-(((2S)-1-((2S,4S)-4-(2-((4-(2-(2,6-dioxopiperidin-3-yl)-1,3-dioxoisoindolin-4-yl)but-3-yn-1-yl)amino)-2-oxoethoxy)-2-((R)-2-phenylmorpholine-4-carbonyl)pyrrolidin-1-yl)-3,3-dimethyl-1-oxobutan-2-yl)carbamoyl)benzo[b]thiophen-5-yl)difluoromethyl)phosphonic acid] | – | > 10 µM
Cc1ncsc1-c1ccc([C@H](C)NC(=O)[C@@H]2C[C@@H](O)CN2C(=O)[C@@H](NC(=O)CCCCCCNC(=O)CC(=O)N2CCN(C(=O)[C@@H](NC(=O)c3cc4cc(C(F)(F)P(=O)(O)O)ccc4s3)C(C)(C)C)[C@H](C(=O)N3CCC[C@H](c4ccccc4)C3)C2)C(C)(C)C)cc1 [Compound 457, (difluoro(2-(((S)-1-((S)-4-(3-((7-(((S)-1-((2S,4R)-4-hydroxy-2-(((S)-1-(4-(4-methylthiazol-5-yl)phenyl)ethyl)carbamoyl)pyrrolidin-1-yl)-3,3-dimethyl-1-oxobutan-2-yl)amino)-7-oxoheptyl)amino)-3-oxopropanoyl)-2-((R)-3-phenylpiperidine-1-carbonyl)piperazin-1-yl)-3,3-dimethyl-1-oxobutan-2-yl)carbamoyl)benzo[b]thiophen-5-yl)methyl)phosphonic acid] | > 10 µM | > 10 µM
Cc1ncsc1-c1ccc([C@H](CC(=O)NCCCCCCCC(=O)N[C@H]2C[C@@H](C(=O)N3CCO[C@H](c4ccccc4)C3)N(C(=O)[C@@H](NC(=O)c3cc4cc(C(F)(F)P(=O)(O)O)ccc4s3)C(C)(C)C)C2)NC(=O)[C@@H]2C[C@@H](O)CN2C(=O)[C@@H](NC(=O)C2(F)CC2)C(C)(C)C)cc1 [Compound 570, (difluoro(2-(((S)-1-((2S,4S)-4-(8-((S)-3-((2S,4R)-1-((S)-2-(1-fluorocyclopropane-1-carboxamido)-3,3-dimethylbutanoyl)-4-hydroxypyrrolidine-2-carboxamido)-3-(4-(4-methylthiazol-5-yl)phenyl)propanamido)octanamido)-2-((R)-2-phenylmorpholine-4-carbonyl)pyrrolidin-1-yl)-3,3-dimethyl-1-oxobutan-2-yl)carbamoyl)benzo[b]thiophen-5-yl)methyl)phosphonic acid] | – | > 10 µM
Cc1ncsc1-c1ccc([C@H](C)NC(=O)[C@@H]2C[C@@H](O)CN2C(=O)[C@@H](NC(=O)CCCCCCCCNC(=O)COc2ccc3c(c2)CN(C(=O)[C@@H](NC(=O)c2cc4cc(C(F)(F)P(=O)(O)O)ccc4s2)C(C)(C)C)[C@H](C(=O)N2CCO[C@H](c4ccccc4)C2)C3)C(C)(C)C)cc1 [Compound 468, (difluoro(2-(((S)-1-((S)-7-(2-((9-(((S)-1-((2S,4R)-4-hydroxy-2-(((S)-1-(4-(4-methylthiazol-5-yl)phenyl)ethyl)carbamoyl)pyrrolidin-1-yl)-3,3-dimethyl-1-oxobutan-2-yl)amino)-9-oxononyl)amino)-2-oxoethoxy)-3-((R)-2-phenylmorpholine-4-carbonyl)-3,4-dihydroisoquinolin-2(1H)-yl)-3,3-dimethyl-1-oxobutan-2-yl)carbamoyl)benzo[b]thiophen-5-yl)methyl)phosphonic acid] | > 10 µM | > 10 µM
Cc1ncsc1-c1ccc([C@H](C)NC(=O)[C@@H]2C[C@@H](O)CN2C(=O)[C@@H](NC(=O)CCCCCCCNC(=O)CC(=O)N2CCN(C(=O)[C@@H](NC(=O)c3cc4cc(C(F)(F)P(=O)(O)O)ccc4s3)C(C)(C)C)[C@H](C(=O)N3CCO[C@H](c4ccccc4)C3)C2)C(C)(C)C)cc1 [Compound 449, (difluoro(2-(((S)-1-((S)-4-(3-((8-(((S)-1-((2S,4R)-4-hydroxy-2-(((S)-1-(4-(4-methylthiazol-5-yl)phenyl)ethyl)carbamoyl)pyrrolidin-1-yl)-3,3-dimethyl-1-oxobutan-2-yl)amino)-8-oxooctyl)amino)-3-oxopropanoyl)-2-((R)-2-phenylmorpholine-4-carbonyl)piperazin-1-yl)-3,3-dimethyl-1-oxobutan-2-yl)carbamoyl)benzo[b]thiophen-5-yl)methyl)phosphonic acid] | > 10 µM | > 10 µM
Cc1ncsc1-c1ccc([C@H](C)NC(=O)[C@@H]2C[C@@H](O)CN2C(=O)[C@@H](NC(=O)CCCCCCCNC(=O)CO[C@H]2C[C@@H](C(=O)N3CCC[C@H](c4ccccc4)C3)N(C(=O)[C@@H](NC(=O)c3cc4cc(C(F)(F)P(=O)(O)O)ccc4s3)C(C)(C)C)C2)C(C)(C)C)cc1 [Compound 440, (difluoro(2-(((S)-1-((2S,4S)-4-(2-((8-(((S)-1-((2S,4R)-4-hydroxy-2-(((S)-1-(4-(4-methylthiazol-5-yl)phenyl)ethyl)carbamoyl)pyrrolidin-1-yl)-3,3-dimethyl-1-oxobutan-2-yl)amino)-8-oxooctyl)amino)-2-oxoethoxy)-2-((R)-3-phenylpiperidine-1-carbonyl)pyrrolidin-1-yl)-3,3-dimethyl-1-oxobutan-2-yl)carbamoyl)benzo[b]thiophen-5-yl)methyl)phosphonic acid] | > 10 µM | > 10 µM
Cc1ncsc1-c1ccc([C@H](C)NC(=O)[C@@H]2C[C@@H](O)CN2C(=O)[C@@H](NC(=O)CCCCCCCCNC(=O)CC(=O)N2CCN(C(=O)[C@@H](NC(=O)c3cc4cc(C(F)(F)P(=O)(O)O)ccc4s3)C(C)(C)C)[C@H](C(=O)N3CCO[C@H](c4ccccc4)C3)C2)C(C)(C)C)cc1 [Compound 450, (difluoro(2-(((S)-1-((S)-4-(3-((9-(((S)-1-((2S,4R)-4-hydroxy-2-(((S)-1-(4-(4-methylthiazol-5-yl)phenyl)ethyl)carbamoyl)pyrrolidin-1-yl)-3,3-dimethyl-1-oxobutan-2-yl)amino)-9-oxononyl)amino)-3-oxopropanoyl)-2-((R)-2-phenylmorpholine-4-carbonyl)piperazin-1-yl)-3,3-dimethyl-1-oxobutan-2-yl)carbamoyl)benzo[b]thiophen-5-yl)methyl)phosphonic acid] | > 10 µM | > 10 µM
